Seven compounds from patent US10980805B2, “Aza-pyridone compounds and uses thereof” (Janssen BioPharma, Inc., priority 2013, dated 2021) can be followed below.

Each structure is given as a SMILES string. Bounds are passed on as bounds.

Assay [1] addresses Full length EN PA (influenza PA endonuclease) (Influenza A virus, UniProt P15659). Description: EN PA FRET inhibition assay. It is filed as biochemical. As to conditions: FRET probe, mean of a minimum of two independent experiments, read-out: Potency (IC50 class, Table 3).
In assay [2] the test system is Influenza strain A/Port Chalmers/1/73 (H3N2). The assay can be described thus: Combination studies (checker-board, MacSynergy II). It is filed as cell-based, Influenza virus. The settings on record: MDCK cells, three days.
Assay [3] relates to Influenza strain A549_A/WSN/33 (H1N1). Description: Influenza antiviral assay (neuraminidase fluorescence readout). Type of assay: cell-based, Influenza virus. The settings on record: Influenza A virus, read-out: % Inhibition (EC50 class, Table 2).
For assay [4], the system named is influenza strains B/Malaysia/2506/2004 or B/Victoria/504/2000. The assay can be described thus: Influenza B assay (fluorescence-based influenza neuraminidase assay). Type of assay: cell-based. As to conditions: Influenza B virus, A549, 20 h; read-out: Potency (EC50).
Where [5] appears, read: Compound 2 = 21-A (PA Inhibitor).
The mark [6] stands for this setting: Compound 2 = Amantadine (M2 Channel-Inhibitor).
Setting [7] is: Compound 2 = Rimantadine (M2 Channel-Inhibitor).
Setting [8] is: Compound 2 = drawing 296 (Polymerase Inhibitor).

Consider `CC(C)N1C[C@H](C(c2ccccc2)c2ccccc2)n2ncc(=O)c(O)c2C1=O` [Compound 6-A], for which the IC50 in assay [1] was less than 0.25 µM. Also, the “Observed Result” value is on record as “additive (volumes in the −25-25 range indicate additive behavior)” in assay [2] (setting [5]), “additive (volumes in the −25-25 range indicate additive behavior)” in assay [2] (setting [6]), “additive (volumes in the −25-25 range indicate additive behavior)” in assay [2] (setting [7]) and “strongly synergistic” in assay [2] (setting [8]). Also, the “Synergy Volume” value in assay [2] (setting [5]) is on record as 4.1 μM^2%; in assay [2] (setting [6]), 22.5 μM^2%; in assay [2] (Compound 2 = Consensus Interferon alpha (Immuno-modulator)) it was 70 μM^2%; in assay [2] (Compound 2 = Favipiravir (T-705) (Polymerase Inhibitor)) it was 185 μM^2%; in assay [2] (Compound 2 = Laninamivir (Neuraminidase-Inhibitor)), 276 μM^2%; in assay [2] (Compound 2 = Oseltamivir (Neuraminidase-Inhibitor)) it was 233 μM^2%. Besides, the “Synergy Volume” value was 308 μM^2% in assay [2] (Compound 2 = Peramivir (Neuraminidase-Inhibitor)); 109 μM^2% in assay [2] (Compound 2 = Ribavirin (Polymerase Inhibitor)); 4.6 μM^2% in assay [2] (setting [7]); 217 μM^2% in assay [2] (Compound 2 = Zanamivir (Neuraminidase-Inhibitor)); 440 μM^2% in assay [2] (setting [8]). Besides, the EC50 in assay [3] and in assay [4] was less than 20 µM in each case.

As for `CN1C[C@H](C2c3ccccc3CCc3ccccc32)n2ncc(=O)c(O)c2C1=O` [Compound 7-A], the IC50 in assay [1] was less than 0.25 µM. Also, the EC50 in assay [3] and in assay [4] was less than 20 µM in each case.

On to `CCN1C[C@H](C(c2cccc(F)c2)c2cccc(F)c2)n2ncc(=O)c(O)c2C1=O` [Compound 21-A], for which the half-inhibitory concentration (IC50) in assay [1] is less than 0.25 µM. For the same compound, the EC50 in assay [3] and in assay [4] was less than 20 µM in each case.

For the compound `CCN1C[C@H](C(c2cccc(Cl)c2)c2cccc(Cl)c2)n2ncc(=O)c(O)c2C1=O` [Compound 39-A], the IC50 in assay [1] was less than 0.25 µM. In addition, the EC50 in assay [3] and in assay [4] was less than 20 µM in each case.

Consider `CC(C)N1C[C@H](C(c2cccc(F)c2)c2cccc(F)c2)n2ncc(=O)c(O)c2C1=O` [Compound 41-A], for which, in assay [1], the IC50 is less than 0.25 µM. Besides, the EC50 in assay [3] and in assay [4] was less than 20 µM each time.

`CC(C)N1C[C@H](C(c2cccc(Cl)c2)c2cccc(Cl)c2)n2ncc(=O)c(O)c2C1=O` [Compound 68-A]: in assay [1], the IC50 is less than 0.25 µM. The concentration for a half-maximal effect (EC50) in assay [3] and in assay [4] was less than 20 µM throughout.

As to `COCCN1C[C@H](C(c2cccc(F)c2)c2cccc(F)c2)n2ncc(=O)c(O)c2C1=O` [Compound 76-A], the IC50 in assay [1] was less than 0.25 µM. Moreover, the EC50 in assay [3] and in assay [4] was less than 20 µM in each case.
